Columns and labels:
[1] = system: MCF-7 breast adenocarcinoma cells; experiment: Xenograft assay of human tumors in athymic nude mice, MCF-7; type: in vivo
Excerpt: (§1) Xenograft Assay of Human Tumors.
(§2) Control mice received vehicle only.

[2] = system: HT-29 colorectal carcinoma cells; experiment: Xenograft assay of human tumors in athymic nude mice, HT-29; type: in vivo
Excerpt: as §1, §2

[3] = system: LNCaP prostate carcinoma cells; experiment: Xenograft assay of human tumors in athymic nude mice, LNCaP; type: in vivo, mouse
Excerpt: as §1, §2

[4] = system: refractory head and neck carcinomas; type: in vivo, human
Excerpt: Eight male subjects and one […] participated. Mean weight was 139 lbs. (range 102 to 219 lbs.).

[5] = Maximal tolerable dose study in beagle dogs, clinical observations; type: in vivo; details: over four hours
Method: Thus the M4N-DMSO group animals were administered with M4N-DMSO with eight intravenous injections via the non-VAP jugular vein every 30 minutes over a 4-hour period. This frequency of delivery mimicked the delivery of the test article using the infusion pump.
Animals from the CET group were observed during the entire infusion period and for at least one hour following end of infusion. The dogs in the DMSO group were observed throughout the jugular vein injection period and for at least one hour following the last (eighth) injection.

[6] = Toxicokinetic analysis of M4N serum concentration in beagle dogs; details: dog, in vivo
Method: Blood samples from the CET group animals were collected via the jugular vein on Study Day (SD) 1, SD 3, SD 6, and SD 8 at the following timepoints: predose, 0.25, 0.5, 1, 2, 4, 8, and 16 hours following the completion of the approximate 4-hour infusion.
Blood samples from the DMSO group animals were collected via the cephalic vein on SD 1, SD 3, SD 6, and SD 8 at the following timepoints: predose, 0.25, 0.5, 1, 2, 4, 8, and 16 hours following the final injection dose of M4N-DMSO.
Blood samples collected from both groups of animals were processed for plasma and serum for TK analysis.
The plasma and serum samples were sent to MedTox Laboratories, the Sponsor's designated laboratory for TK analysis. TK analysis of M4N plasma and serum concentration-time data was performed using a validated method (M200406) by MedTox Laboratories and analyzed by noncompartmental methods to obtain estimates of toxicokinetic parameters (where data allow), but not necessarily limited to, Cmax, Tmax and AUC.

[7] = system: various human tumor cells; experiment: Cell culture analyses of tumor cell growth; type: cell-based
[8] = system: human tumor xenografts (MCF-7, Hep3B, HT-29, LNCaP); details: all four tumor types, of 39 M4N-treated tumors, 21 days
Method: Xenograft Assay of Human Tumors. Athymic nude mice were implanted subcutaneously in their flanks with 2.5×10^6 Hep3B cells, 2×10^6 LNCaP cells, 1×10^7 HT-29 cells, or 2×10^6 MCF-7 cells.
M4N was dissolved in 6% Cremaphor EL, 6% ethanol, 88% saline as described in Loganzo et al. (2003). Mice received a single daily 100 μL i.p. injection containing 2 mg of M4N for 3 weeks. The control mice received an equal volume of the vehicle. Tumors were measured in two perpendicular dimensions (L and W) once every seven days, and the tumor volumes were calculated according to the following formula: V=(L×W/2)^3×π/6. The results from the individual mice were plotted as average tumor volume versus time. Statistical significance of the mean differences in tumor volume was assessed by Student's t-test.
Athymic nude mice were implanted s.c. in each flank with MCF-7 breast adenocarcinoma cells, Hep3B hepatocellular carcinoma cells, HT-29 colorectal carcinoma cells, and LNCaP prostate carcinoma cells. Most mice developed tumors in both flanks, although some developed a single tumor. When tumors attained a mean diameter of 7-8 mm, mice received for three weeks a single daily i.p. injection containing 2 mg of M4N dissolved in 100 uL Cremaphor-ethanol based solvent. Control mice received vehicle only. Tumors were measured in two perpendicular dimensions (L and W) once every seven days, and tumor volumes were calculated according to the formula: V=(L×W/2)^3×π/6.

[9] = MCF-7, of 10 M4N-treated tumors, 21 days i.p. treatment
[10] = HT-29, of 11 M4N-treated tumors, 21 days i.p. treatment
[11] = LNCaP, of 11 M4N-treated tumors, 21 days i.p. treatment

## COc1ccc(C[C@@H](C)[C@@H](C)Cc2ccc(OC)c(OC)c2)cc1OC [M4N, meso-1,4-bis(3,4-dimethoxyphenyl)-2,3-dimethylbutane]
[1]; MCF-7, after 21 days systemic M4N treatment
  Reduction in mean tumor volume versus control: 74%
[1]; [9]
  DOTV: number of tumors with decrease in volume from the original tumor volume: 7
  IOTV: number of tumors with increase in volume from the original tumor volume: 3
[1]; MCF-7 xenograft, 2 mg M4N i.p. daily for 3 weeks
  Tumor Volume Increase (%) - 21 Days Treatment, M4N-Treatment: 84%
[1]; MCF-7 xenograft, 2 mg M4N i.p. daily, 21 days
  Ratio of Mean M4N-Treated Tumor Size to Control Tumor Size: 25.5%
[2]; HT-29, after 21 days systemic M4N treatment
  Reduction in mean tumor volume versus control: 70%
[2]; [10]
  DOTV: number of tumors with decrease in volume from the original tumor volume: 3
  IOTV: number of tumors with increase in volume from the original tumor volume: 8
[2]; HT-29 xenograft, 2 mg M4N i.p. daily for 3 weeks
  Tumor Volume Increase (%) - 21 Days Treatment, M4N-Treatment: 787%
[2]; HT-29 xenograft, 2 mg M4N i.p. daily, 21 days
  Ratio of Mean M4N-Treated Tumor Size to Control Tumor Size: 29.4%
[3]; LNCaP xenograft, 2 mg M4N i.p. daily for 3 weeks
  Tumor Volume Increase (%) - 21 Days Treatment, M4N-Treatment: 25%
[3]; LNCaP xenograft, 2 mg M4N i.p. daily, 21 days
  Ratio of Mean M4N-Treated Tumor Size to Control Tumor Size: 46.3%
[3]; LNCaP, after 21 days systemic M4N treatment
  Reduction in mean tumor volume versus control: 53%
[3]; [11]
  DOTV: number of tumors with decrease in volume from the original tumor volume: 9
  IOTV: number of tumors with increase in volume from the original tumor volume: 2
[3]; systemic oral administration of M4N
  Growth of LNCaP xenograft tumors: effectively suppresses the growth
[4]; in vivo
  Damage to healthy tissue surrounding the tumor: No damage
  Dose delivered without drug-related toxicity: up to 495 mg weekly
  Other adverse events attributed to M4N: No other adverse events
  Relation of SAEs to study medication: unlikely or not related to study medication
  Serious Adverse Events reported: 6
  Subjects with Serious Adverse Events: 4 subjects
  Subjects with severe radiating pain on injection: One
  Subjects with sporadic mild elevations in LFTs: 2 subjects
[4]; of 6 subjects receiving three doses
  Subjects with drug related tumor necrosis after injection: 5 subjects
[4]; of the six patients completing three doses
  Patients with radiologically confirmed tumor volume reduction: three
[4]; patients that completed the treatment
  Efficacy in terms of induction of necrosis: over 80%
[5]; CET vehicle
  Dose safely administered by intravenous infusion: up to 10 mg/kg
[5]; DMSO vehicle
  Dose safely administered intravenously: up to 100 mg/kg
[6]
  Blood levels of M4N achieved with minimal toxicity: up to 14,000 ng/ml
[7]
  Growth of human tumor cells in culture: effectively prevent the growth
[8]
  DOTV: number of tumors with decrease in volume from the original tumor volume: 21
  IOTV: number of tumors with increase in volume from the original tumor volume: 18
  IOTV: share of tumors with increase in volume: (46%)

Source: patent publication US7728036B2, “Methods for delivery of catecholic butanes for treatment of tumors” (priority 2003, dated 2010)
